Data reported in ChEMBL document CHEMBL1212706, “A potent mechanism-inspired O-GlcNAcase inhibitor that blocks phosphorylation of tau in vivo” (Nat Chem Biol, 2008).
The source made the active and inactive calls. No cut-off for these calls is given here.

Tests used:
PC-12 [1] = assay: Induction of O-GlcNAc level in NGF-differentiated rat PC12 cells after 24 hrs by densitometric analysis; format: functional, cell-based; settings: PC-12, 24 h
Rattus norvegicus [2] = assay: Decrease in pThr231 immunoreactivity in Sprague-Dawley rat brain epitops of CA1 region at 200 mg/kg, po by […]; format: functional, organism-based; parameters: dose 200 mg/kg
Rattus norvegicus [3] = assay: Increase in O-GlcNAc level in Sprague-Dawley rat brain pyramidal cell layer of CA1 region at 200 mg/kg, po by […]; format: functional, organism-based; parameters: dose 200 mg/kg
[4] = Inhibition of human lysosomal beta-hexosaminidase
Rattus norvegicus [5] = assay: Decrease in pSer396 immunoreactivity in Sprague-Dawley rat brain epitops of CA1 region at 200 mg/kg, po by […]; format: functional, organism-based; parameters: dose 200 mg/kg
Rattus norvegicus [6] = assay: Increase in O-GlcNAc immunoreactivity in Sprague-Dawley rat brain nucleus at 200 mg/kg, po by […]; format: functional, organism-based; parameters: dose 200 mg/kg
Canavalia ensiformis = assay: Inhibition of Canavalia ensiformis alpha-mannosidase
Rattus norvegicus [7] = assay: Reduction in tau protein phosphorylation at Thr231 in Sprague-Dawley rat brain CA1 region at 200 mg/kg, po by […]; format: functional, organism-based; parameters: dose 200 mg/kg
Rattus norvegicus [8] = assay: Induction of O-GlcNAc level in rat at 50 mg/kg, iv by Western blot analysis; format: functional, organism-based; parameters: dose 50 mg/kg; settings: TDE = time-dependent effect
Saccharomyces cerevisiae = assay: Inhibition of Saccharomyces cerevisiae alpha-glucosidase
Rattus norvegicus [9] = assay: Decrease in pThr231 immunoreactivity in Sprague-Dawley rat brain pyramidal cell layer of CA1 region at 200 mg/kg, po by […]; format: functional, organism-based; parameters: dose 200 mg/kg
[10] = biological target: T1, Alpha-galactosidase (Thermotoga maritima) (UniProt G4FEF4); assay: Inhibition of Thermotoga maritima alpha-galactosidase
T1 sequence (whole entry): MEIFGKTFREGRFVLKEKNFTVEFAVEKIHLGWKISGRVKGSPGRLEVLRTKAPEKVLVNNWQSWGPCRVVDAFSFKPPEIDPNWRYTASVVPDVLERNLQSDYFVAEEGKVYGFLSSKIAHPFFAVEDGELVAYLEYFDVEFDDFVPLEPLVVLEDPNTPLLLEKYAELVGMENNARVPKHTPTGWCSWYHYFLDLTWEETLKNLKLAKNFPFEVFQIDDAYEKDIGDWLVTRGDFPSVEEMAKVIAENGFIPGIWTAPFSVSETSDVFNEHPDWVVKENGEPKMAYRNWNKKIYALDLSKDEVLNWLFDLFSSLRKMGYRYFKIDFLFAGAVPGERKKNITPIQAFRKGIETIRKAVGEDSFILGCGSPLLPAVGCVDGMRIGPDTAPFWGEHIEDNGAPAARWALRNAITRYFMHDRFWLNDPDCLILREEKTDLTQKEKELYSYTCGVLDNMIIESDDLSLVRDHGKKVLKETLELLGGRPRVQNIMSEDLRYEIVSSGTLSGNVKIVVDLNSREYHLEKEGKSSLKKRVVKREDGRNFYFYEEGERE

PC-12 [11] = assay: Reduction in tau protein phosphorylation at Ser396 position in NGF-differentiated rat PC12 cells after 4 hrs by Western blot analysis relative to control; format: functional, cell-based
Rattus norvegicus [12] = assay: Increase in O-GlcNAc immunoreactivity in Sprague-Dawley rat brain perikaryon at 200 mg/kg, po by […]; format: functional, organism-based; parameters: dose 200 mg/kg
[13] = Inhibition of beta-hexosaminidase
Rattus norvegicus [14] = assay: Increase in O-GlcNAc immunoreactivity in Sprague-Dawley rat brain CA1 region at 200 mg/kg, po by […]; format: functional, organism-based; parameters: dose 200 mg/kg
Rattus norvegicus [15] = assay: Decrease in pSer396 immunoreactivity in Sprague-Dawley rat brain pyramidal cell layer of CA1 region at 200 mg/kg, po by […]; format: functional, organism-based; parameters: dose 200 mg/kg
Rattus norvegicus [16] = assay: Reduction in tau protein phosphorylation at Ser396 in Sprague-Dawley rat brain CA1 region at 200 mg/kg, po by […]; format: functional, organism-based; parameters: dose 200 mg/kg
PC-12 [17] = assay: Induction of O-GlcNAc level in NGF-differentiated rat PC12 cells at >25 uM by Western blot analysis; format: functional, cell-based; settings: TDE = time-dependent effect
[18] = biological target: Beta-galactosidase (Kluyveromyces lactis) (UniProt P00723); assay: Inhibition of Kluyveromyces lactis glycoside hydrolase beta-galactosidase
PC-12 [19] = assay: […] in pSer396 immunoreactivity in NGF-differentiated rat PC12 cells after 4 hrs by Western blot analysis; format: functional, cell-based; settings: TDE = time-dependent effect
PC-12 [20] = assay: Induction of O-GlcNAc level in NGF-differentiated rat PC12 cells after 24 hrs by Western blot analysis; format: functional, cell-based
[21] = biological target: T2, Beta-hexosaminidase (Vibrio cholerae serotype O1 (strain ATCC 39315 / El Tor Inaba N16961)) (UniProt Q9KU37); assay: Inhibition of Vibrio cholerae glycoside hydrolase NagZ
T2 sequence (whole entry): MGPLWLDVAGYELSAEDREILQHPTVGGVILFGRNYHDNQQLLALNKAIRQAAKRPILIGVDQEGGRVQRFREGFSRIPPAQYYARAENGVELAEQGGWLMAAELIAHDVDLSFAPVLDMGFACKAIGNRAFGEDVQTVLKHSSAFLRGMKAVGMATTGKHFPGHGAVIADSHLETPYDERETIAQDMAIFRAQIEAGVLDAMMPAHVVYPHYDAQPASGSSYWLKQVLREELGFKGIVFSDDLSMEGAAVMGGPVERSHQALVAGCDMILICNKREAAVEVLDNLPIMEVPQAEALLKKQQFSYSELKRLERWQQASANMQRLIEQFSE

Protein O-GlcNAcase = biological target: T3, Protein O-GlcNAcase (Homo sapiens, UniProt O60502); assay: Inhibition of human O-GlcNAcase
T3 sequence (O60502 whole entry): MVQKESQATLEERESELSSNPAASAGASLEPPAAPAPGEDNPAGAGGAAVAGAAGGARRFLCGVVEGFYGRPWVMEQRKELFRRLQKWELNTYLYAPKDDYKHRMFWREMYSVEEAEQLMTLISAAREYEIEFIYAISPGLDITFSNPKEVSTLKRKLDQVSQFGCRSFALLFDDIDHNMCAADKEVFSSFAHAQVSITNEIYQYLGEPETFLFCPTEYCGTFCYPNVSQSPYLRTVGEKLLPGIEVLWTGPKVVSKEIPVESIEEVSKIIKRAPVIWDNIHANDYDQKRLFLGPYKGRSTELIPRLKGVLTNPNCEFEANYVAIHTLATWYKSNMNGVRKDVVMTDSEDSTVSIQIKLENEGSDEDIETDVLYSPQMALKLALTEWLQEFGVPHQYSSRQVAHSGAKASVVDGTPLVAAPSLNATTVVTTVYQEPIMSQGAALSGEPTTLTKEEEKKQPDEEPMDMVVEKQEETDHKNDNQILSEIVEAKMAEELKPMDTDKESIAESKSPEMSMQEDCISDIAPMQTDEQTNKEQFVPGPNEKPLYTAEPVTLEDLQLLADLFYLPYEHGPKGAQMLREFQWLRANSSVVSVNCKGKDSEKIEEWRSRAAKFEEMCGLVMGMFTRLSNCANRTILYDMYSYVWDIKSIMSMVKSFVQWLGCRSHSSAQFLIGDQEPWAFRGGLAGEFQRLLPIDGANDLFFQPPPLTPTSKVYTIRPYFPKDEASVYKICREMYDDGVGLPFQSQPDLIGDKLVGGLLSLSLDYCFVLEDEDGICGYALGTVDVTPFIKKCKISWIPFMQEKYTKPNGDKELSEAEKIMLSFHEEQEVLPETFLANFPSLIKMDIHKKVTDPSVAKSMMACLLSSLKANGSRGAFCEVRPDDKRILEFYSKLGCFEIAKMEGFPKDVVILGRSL

Homo sapiens = species: Homo sapiens; assay: Selectivity for human O-GlcNAcase over human lysosomal beta-hexosaminidase

Sequence of Beta-galactosidase (Kluyveromyces lactis) (P00723 whole entry): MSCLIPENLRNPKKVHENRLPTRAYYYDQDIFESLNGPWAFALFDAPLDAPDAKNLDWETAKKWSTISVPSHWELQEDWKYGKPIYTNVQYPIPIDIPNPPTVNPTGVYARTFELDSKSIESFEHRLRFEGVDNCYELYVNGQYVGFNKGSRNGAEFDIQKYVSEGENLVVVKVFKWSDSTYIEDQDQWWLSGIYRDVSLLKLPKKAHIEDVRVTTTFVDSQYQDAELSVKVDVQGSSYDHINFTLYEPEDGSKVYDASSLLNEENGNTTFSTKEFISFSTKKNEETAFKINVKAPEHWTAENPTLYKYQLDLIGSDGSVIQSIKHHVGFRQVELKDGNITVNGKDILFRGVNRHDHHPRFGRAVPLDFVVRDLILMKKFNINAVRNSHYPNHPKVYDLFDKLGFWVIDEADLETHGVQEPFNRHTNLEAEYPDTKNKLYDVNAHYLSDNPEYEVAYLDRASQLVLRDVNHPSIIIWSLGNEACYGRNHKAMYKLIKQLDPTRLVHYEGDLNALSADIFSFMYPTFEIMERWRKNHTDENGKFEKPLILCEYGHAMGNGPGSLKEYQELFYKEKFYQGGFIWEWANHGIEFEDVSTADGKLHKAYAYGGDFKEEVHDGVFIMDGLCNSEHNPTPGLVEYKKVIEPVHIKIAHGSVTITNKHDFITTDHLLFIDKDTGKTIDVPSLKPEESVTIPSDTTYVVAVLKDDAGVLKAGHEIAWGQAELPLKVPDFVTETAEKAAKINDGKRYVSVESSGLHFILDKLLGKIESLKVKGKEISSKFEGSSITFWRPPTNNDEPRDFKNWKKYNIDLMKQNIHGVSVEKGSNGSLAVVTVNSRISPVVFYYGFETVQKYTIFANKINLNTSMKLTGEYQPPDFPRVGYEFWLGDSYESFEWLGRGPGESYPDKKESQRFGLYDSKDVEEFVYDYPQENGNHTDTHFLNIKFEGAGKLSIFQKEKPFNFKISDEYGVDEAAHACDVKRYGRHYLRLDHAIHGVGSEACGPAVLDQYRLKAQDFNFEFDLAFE

Q: Which EC50 (PC-12 [1]) does the source give for `CCNC1=N[C@@H]2[C@@H](O)[C@H](O)[C@@H](CO)O[C@@H]2S1` here?
A: Its EC50 is 0.03 µM.

Q: What about the Activity (Rattus norvegicus [2]) of the same compound?
A: The Activity was “Active”.

Q: And the Activity (Rattus norvegicus [3])?
A: Its Activity is “Active”.

Q: And the Ki [4]?
A: The Ki was 750 µM.

Q: What about the Activity (Rattus norvegicus [5]) of the same compound?
A: Its Activity is “Active”.

Q: And the Activity (Rattus norvegicus [6])?
A: Its Activity is “Active”.

Q: And the inhibition (Canavalia ensiformis)?
A: The inhibition was “inactive”.

Q: And the Activity (Rattus norvegicus [7])?
A: The Activity was “Active”.

Q: What about the Activity (Rattus norvegicus [8]) of the same compound?
A: Its Activity is “tde”.

Q: What about the inhibition (Saccharomyces cerevisiae) of the same compound?
A: The inhibition was “inactive”.

Q: And the Activity (Rattus norvegicus [9])?
A: The Activity was “Active”.

Q: What about the inhibition [10] of the same compound?
A: The inhibition was “inactive”.

Q: What about the Activity (PC-12 [11]) of the same compound?
A: Its Activity is “Dose-dependent effect”.

Q: And the Activity (Rattus norvegicus [12])?
A: The Activity was “Active”.

Q: And the inhibition [13]?
A: The inhibition was “inactive”.

Q: What about the Activity (Rattus norvegicus [14]) of the same compound?
A: Its Activity is “Active”.

Q: What about the Activity (Rattus norvegicus [15]) of the same compound?
A: The Activity was “Active”.

Q: And the Activity (Rattus norvegicus [16])?
A: The Activity was “Active”.

Q: And the Activity (PC-12 [17])?
A: Its Activity is “tde”.

Q: And the inhibition [18]?
A: Its inhibition is “inactive”.

Q: What about the Activity (PC-12 [19]) of the same compound?
A: The Activity was “tde”.

Q: What about the Activity (PC-12 [20]) of the same compound?
A: The Activity was “Dose-dependent effect”.

Q: What about the inhibition [21] of the same compound?
A: The inhibition was “inactive”.

Q: With `CC(=O)N[C@H]1c2nc(CC(=O)O)cn2[C@H](CO)[C@@H](O)[C@@H]1O` as the compound, how does the Ki (Protein O-GlcNAcase) read?
A: The Ki was 0.42 µM.

Q: With `CCCC1=N[C@@H]2[C@@H](O)[C@H](O)[C@@H](CO)O[C@@H]2S1` as the compound, how does the fold change (FC) (Homo sapiens) read?
A: Its fold change (FC) is 800.

Q: What about the Ki (Protein O-GlcNAcase) of the same compound?
A: The Ki was 0.6 µM.
